Values joined by “and” are separate entries in the source; they are usually repeats but may differ in a detail not shown here. Identical values can stand only once.
Test system: 324938-238-R-J1-PDC complex spheroid viability
Experiment: Anticancer human tumor 324938-238-R-J1-PDC patient-derived bladder carcinoma cell line growth inhibition
Details: for viability, T/C: stronger effect = lower value
From the text: Multicellular complex tumor spheroid response to LSD1 Inhibitor Iadademstat in combination with a variety of drugs and investigational agents in selected tumor cell lines
The current study was undertaken to assess response to LSD1 inhibitors in combination with standard-of-care drugs and investigational agents in solid tumor complex spheroid models as well as in the K-562 leukemia. Complex spheroids include a stromal component modeled by human endothelial cells (HUVEC) and fibroblasts modeled by human mesenchymal stem cells (MSCs). The concentration ranges selected for each drug and investigational agent were based upon clinically achievable concentrations if the clinical Cmax of the agent was known.
Compounds. The drugs and investigational agents used in this study are listed on Table 1. All of the agents used, including staurosporine (NSC755774) and gemcitabine (NSC613327), were obtained from the Developmental Therapeutics Program, NCI. FDA-approved anticancer drugs are available from the NCI at http://dtp.nci.nih.gov/branches/dscb/oncology_drugset_explanation.html. Drugs and investigational agents were >95% pure by proton nuclear magnetic resonance (NMR) and liquid chromatography/mass spectrometry (LC/MS). Stock solutions were prepared at 400x in DMSO, stored at -70 degrees C, and diluted in fresh medium prior to their use. The final concentration of DMSO in cell culture wells never exceeded 0.25% (v/v). The FDA-approved anticancer drug set is available from the Developmental Therapeutics Program at https://dtp.cancer.gov/organization/dscb/obtaining/available_plates.htm. All drugs and investigational agents were tested over a range starting from a high concentration at or near the clinical Cmax and decreasing in half-log increments. If the clinical Cmax for an agent had not been determined, the highest concentration tested was 10 microM.
Cell Lines. The patient-derived cancer cell (PDC) lines: 292921-168-R-J2-PDC, K24384-001-R-PDC, and 521955-158-R2-J5-PDC pancreatic carcinomas, 556581-035-R-J1 ovarian carcinoma, 324938-238-R-J1-PDC, 855422-203-R-J1-PDC and 883617-216-R-J1-PDC urothelial bladder carcinomas, 743489-274-T-PDC renal cell carcinoma, 138582-R-J1 Merkel cell tumor, K60290-347-R-J1 and K57222-313-R-J1-PDC glioblastomas, 653999-131-R-J2-PDC, LG0703-F948-PDC, and 349418-098-R-PDC non-small cell lung carcinomas, 885512-296-R-J2-PDC, 171881-019-R-J1-PDC breast carcinomas and 186277-243-T-J2-PDC and 233499-124-R-J2-PDC colon carcinomas were obtained from the NCI Patient-Derived Models Repository (PDMR, https://pdmr.cancer.gov). The established cell lines NCI/ADR-RES (RRID:CVCL_14520 and OVCAR-5 (RRID:CVCL_1628) ovarian carcinomas, 786-O (RRID:CVCL_1051) and A498 (RRID:CVCL_A498) renal cell carcinoma, NCI-H211 (ATCC, cat. CRL-5824; RRID:CVCL_1529), NCI-H196 (ATCC, cat. CRL-5823, RRID:CVCL_1509), SW 1271 (ATCC, cat. CRL-2177, RRID:CVCL_1716) and NCI-H1876 (ATCC, cat. CRL-5902, RRID:CVCL_1503) small cell lung carcinomas, MDA-MB-231 (RRID:CVCL_0062) and MDA-MB-468 (RRID:CVCL_0419)breast carcinomas (10-12). Pooled donor human umbilical vein endothelial cells (HUVEC, Lonza, cat. CC-2519) and human mesenchymal stem cells (hMSC, Lonza, cat. PT-2501) were purchased from Lonza (Walkersville, MD).
Cell Culture. All cells were maintained in an incubator at 37 degrees C and 5% CO2 with 95% humidity. The PDC lines were cultured according to standard operating procedures established by the NCI PDMR (https://pdmr.cancer.gov). Briefly all PDCs were thawed and cultured in Matrigel-coated flasks prepared with a working solution of 1X Ham's F-12 nutrient mix, without supplementation (Invitrogen, Waltham, MA, cat. 11765054), 100 U/mL penicillin-streptomycin (Invitrogen, cat. 15140122), and 2.5% Matrigel (Corning Inc., Corning, NY, cat. 354248) for the first three passages. […]

[1] = curve of first compound, second compound 0.1 µM
[2] = curve of first compound, second compound 0.316 µM
[3] = curve of first compound, second compound 1 µM
[4] = curve of first compound, second compound 3.16 µM
[5] = curve of first compound, second compound 10 µM
[6] = second compound 0.1 µM, first compound 0.000316 µM
[7] = second compound 0.1 µM, first compound 0.001 µM
[8] = second compound 0.1 µM, first compound 0.00316 µM
[9] = second compound 0.1 µM, first compound 0.01 µM
[10] = second compound 0.1 µM, first compound 0.0316 µM
[11] = second compound 0.1 µM, first compound 0.1 µM
[12] = second compound 0.316 µM, first compound 0.000316 µM
[13] = second compound 0.316 µM, first compound 0.001 µM
[14] = second compound 0.316 µM, first compound 0.00316 µM
[15] = second compound 0.316 µM, first compound 0.01 µM
[16] = second compound 0.316 µM, first compound 0.0316 µM
[17] = second compound 0.316 µM, first compound 0.1 µM
[18] = second compound 1 µM, first compound 0.000316 µM
[19] = second compound 1 µM, first compound 0.001 µM
[20] = second compound 1 µM, first compound 0.00316 µM
[21] = second compound 1 µM, first compound 0.01 µM
[22] = second compound 1 µM, first compound 0.0316 µM
[23] = second compound 1 µM, first compound 0.1 µM
[24] = second compound 3.16 µM, first compound 0.000316 µM
[25] = second compound 3.16 µM, first compound 0.001 µM
[26] = second compound 3.16 µM, first compound 0.00316 µM
[27] = second compound 3.16 µM, first compound 0.01 µM
[28] = second compound 3.16 µM, first compound 0.0316 µM
[29] = second compound 3.16 µM, first compound 0.1 µM
[30] = second compound 10 µM, first compound 0.000316 µM
[31] = second compound 10 µM, first compound 0.001 µM
[32] = second compound 10 µM, first compound 0.00316 µM
[33] = second compound 10 µM, first compound 0.01 µM
[34] = second compound 10 µM, first compound 0.0316 µM
[35] = second compound 10 µM, first compound 0.1 µM
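Also: spheroids also contain HUVEC and human MSCs and agents combined with iadademstat; spheroids exposed to agents for 7 days before readout.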

Row | Structure (SMILES) | IC50 [1] | IC50 [2] | IC50 [3] | IC50 [4] | IC50 [5] | viability, T/C [6] | viability, T/C [7] | viability, T/C [8] | viability, T/C [9] | viability, T/C [10] | viability, T/C [11] | viability, T/C [12] | viability, T/C [13] | viability, T/C [14] | viability, T/C [15] | viability, T/C [16] | viability, T/C [17] | viability, T/C [18] | viability, T/C [19] | viability, T/C [20] | further results
1 | CC[C@@]1(O)C(=O)OCc2c1cc1n(c2=O)Cc2cc3c(CN(C)C)c(O)ccc3nc2-1 + NC1CC1c1ccc(-c2cccc(O)c2)cc1 | 1.32 nM | 1.13 nM | 1.38 nM | 1.22 nM | 1.17 nM | 82.5% | 57% | 27% | 7.09% | 7.47% | 8.37% | 68.2% | 52.5% | 25.4% | 6.5% | 7.53% | 6.02% | 67.8% | 58.2% | 27.7% | viability, T/C [21]: 6.31%; viability, T/C [22]: 6.22%; viability, T/C [23]: 8.13%; viability, T/C [24]: 69.7%; viability, T/C [25]: 53.6%; viability, T/C [26]: 28.6%; viability, T/C [27]: 7%; viability, T/C [28]: 5.72%; viability, T/C [29]: 6.54%; viability, T/C [30]: 66.1%; viability, T/C [31]: 52.7%; viability, T/C [32]: 28.8%; viability, T/C [33]: 10.2%; viability, T/C [34]: 8.64%; viability, T/C [35]: 9.59%
2 | CC(C)CC(NC(=O)C(Cc1ccccc1)NC(=O)c1cnccn1)B(O)O (stereo not given) + NC1CC1c1ccc(-c2cccc(O)c2)cc1 | 0.458 nM | 0.404 nM | 0.364 nM | 0.389 nM | 0.34 nM | 68.2% | 12.1% | 0.5% | 2.29% | 0.55% | 0.16% | 62% | 5.56% | 0.25% | 0.3% | 0.26% | 0.14% | 56% | 6.79% | 0.15% | viability, T/C [21]: 0.61%; viability, T/C [22]: 0.07%; viability, T/C [23]: 0.17%; viability, T/C [24]: 59.2%; viability, T/C [25]: 7.68%; viability, T/C [26]: 0.39%; viability, T/C [27]: 0.28%; viability, T/C [28]: 0.28%; viability, T/C [29]: 0.14%; viability, T/C [30]: 53.1%; viability, T/C [31]: 4.57%; viability, T/C [32]: 0.15%; viability, T/C [33]: 0.15%; viability, T/C [34]: 0.16%; viability, T/C [35]: 0.21%
3 | NC1CC1c1ccc(-c2cccc(O)c2)cc1 (stereo not given) |  |  |  |  |  |  |  |  |  |  |  |  |  |  |  |  |  |  |  |  | viability, T/C (compound 0.1 µM): 86.9% and 102% and 91.3%; viability, T/C (compound 3.16 µM): 73.9% [middle of 23 runs]; IC50 (compound alone, run of 12/07/2021): > 10000 nM
4 | COc1cc(Nc2ncc3c(n2)-c2ccc(Cl)cc2C(c2c(F)cccc2OC)=NC3)ccc1C(=O)O |  |  |  |  |  |  |  |  |  |  |  |  |  |  |  |  |  |  |  |  | viability, T/C (compound 0.00316 µM): 91.2% and 90.6%; viability, T/C (compound 0.01 µM): 76.9% and 59%; viability, T/C (compound 0.0316 µM): 35.7% and 26.8%; viability, T/C (compound 0.1 µM): 19.6% and 15.6%; viability, T/C (compound 0.316 µM): 18.6% and 13.9%; viability, T/C (compound 1 µM): 15.3% and 14.3%; IC50 (curve of compound): 21.2 nM and 13.8 nM

— PubChem BioAssay AID1918935 (Molecular Pharmacology Branch, DTP, NCI, 2023)
